Measured values taken from US10501493B2, “Broad spectrum antibiotics” (priority 2011, dated 2019).
Values after ≈ are worked out from the molar mass of the structure shown. Like-named read-outs stand apart in the source and are kept apart here.

Experiments:
S. pneumoniae D39 = assay: In vitro antimicrobial activity, MIC by broth micro-dilution; type: cell-based; details: for MIC: Streptococcus pneumoniae, D39, read-out: MIC class, S. pneumoniae D39
Procedure: (§1) In vitro antimicrobial activity of each compound was determined by measuring minimal inhibitor concentrations (MICs) using the broth micro-dilution technique as approved by the Clinical and Laboratory Standards Institute (CLSI). The microbiological panel examined contains a number of bacterial species including E. coli MG1655, P. aeruginosa, S. aureus, and S. epidermidis. In addition, the panel includes previously described pseudo-isogenic strains of these four species (P. A. Smith et al. Chem Biol 2010, 1223-1231), in which a specific proline residue in SPase (called LepB in Gram-negative organisms an SpsB in Gram-positive organisms) has been mutated to a different amino acid. The resulting strains have increased susceptibility to the arylomycin class of antibiotics. Analysis of the strains lacking this proline residue will increases the dynamic range of the assay, and comparison of the sensitivities of the isogenic pairs provides ongoing confirmation that the activity gained through derivatization is specific to the inhibition of SPase. Briefly, bacterial streaks were grown on Mueller Hinton Agar II (Difco™) with or without 5% lysed horse blood for a period of 24 hours at either 35° C. or 28° C. Bacterial colonies were suspended in cation adjusted Mueller Hinton broth and diluted to a final concentration of 1*10^7 colony forming units/ml. Two-fold serial dilutions of each compound were arrayed into 96-well plates (100 μl final volume per well) and 5 ul of the bacterial suspension will be added. […] MICs were periodically checked plating serial dilutions of MIC wells and quantitatively determining viable colonies.

E. coli ATCC 25922 = assay: as above; type: cell-based; details: for MIC: Escherichia coli, ATCC25922, read-out: MIC class, E. coli ATCC 25922
Procedure: as §1

S. epidermidis RP62A = assay: as above; type: cell-based; details: for MIC: Staphylococcus epidermidis, RP62A, read-out: MIC class, S. epidermidis RP62A
Procedure: as §1

S. aurues NCTC-8325 = assay: as above; type: cell-based, S. aureus; details: for MIC: Staphylococcus aureus, NCTC8325, read-out: MIC class, S. aurues NCTC-8325
Procedure: as §1

[1] = tested on: E. col ATCC 25922 LepB(P84L); assay: as above; type: cell-based, E. coli; details: for MIC: Escherichia coli, ATCC25922, read-out: MIC class, E. col ATCC 25922 LepB(P84L)
Procedure: as §1

[2] = tested on: S. aureus NCTC-8325 SpsB(P295); assay: as above; type: cell-based; details: for MIC: Staphylococcus aureus, NCTC8325, read-out: MIC class, S. aureus NCTC-8325 SpsB(P295)
Procedure: as §1

S. aureus SPase = target: T1, S. aureus SPase (Staphylococcus aureus, UniProt P0A070); assay: Enzymatic fluorogenic substrate cleavage assay for IC50; type: biochemical
T1 construct: Full length His-tagged S. aureus SPase protein was expressed similarly; His-tag; made in house; host or cells: E. coli BL21(DE3)
Procedure: (§2) Full length His-tagged E. coli SPase proteins were expressed in E. coli BL21(DE3) containing the plasmid pET23-lepB, P. A. Smith et al. Chem Biol 2010, 1223-1231. Briefly, saturated overnight cultures grown in 20 ml of Luria-Bertani medium supplemented with ampicillin were subcultures into 1.5 L of Luria-Bertani, and shaken at 37° C. until an optical density at 600 nm of 0.4-0.5 was achieved. Protein expression was induced with Isopropyl β-D-1-thiogalactopyranoside (ITPG) at a final concentration of […], and purified using nickel affinity chromatography. Full length His-tagged S. aureus SPase protein was expressed similarly from E. coli BL21(DE3) containing the plasmid pCDF1-SaSpsB or pCDF1-SaSpsB(P29S) and purified similarly to the E. coli protein with the following exceptions. SPase protein was solubilized using 300 mM NaCl, 20 mM Tris pH 8.06, 5 mM Imidazole, 10% glycerol, 1% Triton X-100, prior to purification in Ni-NTA Superflow resin and resin bound protein was washed in a similar buffer containing 1% Elugent in place of Triton X-100 prior to protein eluted in wash buffer supplemented with 300 mM imidazole. Protein purify was judged to exceed 95% by visual inspection of SDS-PAGE followed by Comassie staining. All protein concentrations were determined by BCA assay.
(§3) In addition to the equilibrium binding assays, compound activity is also characterized by measuring inhibition of E. coli and S. aureus substrate cleavage reactions using fluorogenic peptides developed at RQx Pharmaceuticals. Briefly, two fluorogenic peptide substrates (decanoyl-LSSPA Y^NO2 A ? ADK^abzPD (SEQ ID NO: 1) and decanyol-LTPTAY^NO2 A ? ASKK^abzDD (SEQ ID NO: 2)) have been synthesized, where abz is the fluorescence donor 2-aminobenzamide, YNO2 is the fluorescence acceptor 3-nitrotyrosine, and the cleavage site is indicated with an arrow. These substrates are processed with a second order rate constant (Kcat/KM) of 10^5 M^−1s^−1 for E. coli and S. aureus SPase enzymes, and cleavage results in a greater than 10-fold increase in fluorescence signal (excitation at 314 nm, emission at 416 nm) as measured using a SpectraMax M2 fluorescence microplate reader. Two-folder serial dilutions of compound are prepared in cleavage reaction buffer consisting of: 50 mM Tris-HCl pH 8.0, 100 mM NaCl, 10% glycerol, 1 mM EDTA, detergent (1% NP-40 or 0.1% Elugent™ for E. coli LepB or S. aureus SpsB respectively) and either 2.5 nM of E. coli SPase enzyme or 10 nM of S. aureus SPase enzyme. 40 μl aliquots of the compound dilution series in the protein/buffer solution is transferred to black 384-well polypropylene plates, and 10 μl of fluorogenic peptide at a concentration of 100 μM is added to initiate the reaction. The increase in fluorescence, corresponding to substrate cleavage, is monitored continuously at room temperature for 30 minutes and initial reaction rates are calculated based in the linear increase in fluorescence from the initial 30 minutes of the reaction. Reaction rates are plotted as a function of compound concentration, and IC50 values are determined nonlinear regression analysis (SoftMax® Pro v5.4) of the sigmoidal dose-response curve.

E. coli SPase = target: T2, E. coli SPase (Escherichia coli, UniProt P00803); assay: as above; type: biochemical
T2 construct: Full length His-tagged E. coli SPase proteins were expressed in E. coli BL21(DE3); His-tag; made in house; host or cells: E. coli BL21(DE3)
Procedure: as §2, §3

SMILES	MIC (S. pneumoniae D39)	MIC (E. coli ATCC 25922)	MIC (S. epidermidis RP62A)	MIC (S. aurues NCTC-8325)	MIC [1]	MIC [2]	IC50 (S. aureus SPase)	IC50 (E. coli SPase)	MIC class, S. pneumoniae D39 (S. pneumoniae D39)	MIC class, E. coli ATCC 25922 (E. coli ATCC 25922)	MIC class, S. aureus NCTC-8325 SpsB(P295) [2]	MIC class, S. epidermidis RP62A (S. epidermidis RP62A)	IC50 (S. aureus SPase; fluorogenic peptide cleavage, read-out: IC50 class S. aureus SPase)	IC50 (E. coli SPase; fluorogenic peptide cleavage, read-out: IC50 class E. coli SPase)	MIC class, E. col ATCC 25922 LepB(P84L) [1]	MIC class, S. aurues NCTC-8325 (S. aurues NCTC-8325; S. aurues NCTC-8325)
CCCCc1ccc(-c2ccc(C(=O)N[C@H](CO)C(=O)N[C@H](C)C(=O)N[C@@H](CCCCN)C(=O)N(C)[C@@H]3C(=O)N[C@@H](C)C(=O)N[C@H](C(=O)O)Cc4ccc(O)c(c4)-c4cc3ccc4O)cc2)cc1 [Compound 98]	> 64 µg/mL	> 64 µg/mL	16 to 64 µg/mL (≈ 17.1 to 68.4 µM)	> 64 µg/mL	< 8 µg/mL	–	–	–	–	–	–	–	–	–	–	–
CCCCCCCCCCCCCCCC(=O)N(C)[C@H](CO)C(=O)N[C@H](CCc1ccccc1)C(=O)NCC(=O)N(C)[C@@H]1C(=O)N[C@@H](C)C(=O)N[C@H](C(=O)O)Cc2ccc(O)c(c2)-c2cc1ccc2O [Compound 41]	> 64 µg/mL	> 64 µg/mL	< 8 µg/mL	–	> 64 µg/mL	> 64 µg/mL	< 1000 nM	< 1000 nM	–	–	–	–	–	–	–	–
CCCCCCCCCCCCCCCC(=O)N(C)[C@H](CO)C(=O)N[C@H](C)C(=O)NCC(=O)N(C)[C@@H]1C(=O)N[C@@H](C)C(=O)N[C@H](C(=O)N[C@@H](C)CO)Cc2ccc(O)c(c2)-c2cc1ccc2O [Compound 56]	16 to 64 µg/mL (≈ 17.1 to 68.2 µM)	> 64 µg/mL	< 8 µg/mL	–	> 64 µg/mL	> 64 µg/mL	> 10000 nM	1000 to 10000 nM	–	–	–	–	–	–	–	–
CCCCCCCCCCCCCCCC(=O)N(C)[C@H](CO)C(=O)N[C@H](C)C(=O)NCC(=O)N(C)[C@@H]1C(=O)N[C@@H](C)C(=O)N[C@H](C(=O)NCCO)Cc2ccc(O)c(c2)-c2cc1ccc2O [Compound 54]	< 8 µg/mL	> 64 µg/mL	< 8 µg/mL	–	< 8 µg/mL	16 to 64 µg/mL (≈ 17.3 to 69.3 µM)	1000 to 10000 nM	< 1000 nM	–	–	–	–	–	–	–	–
CCCCCCCCCCCCCCCC(=O)N(C)[C@H](CO)C(=O)N[C@H](Cc1ccccc1)C(=O)NCC(=O)N(C)[C@@H]1C(=O)N[C@@H](C)C(=O)N[C@H](C(=O)O)Cc2ccc(O)c(c2)-c2cc1ccc2O [Compound 39]	16 to 64 µg/mL (≈ 16.7 to 66.9 µM)	> 64 µg/mL	16 to 64 µg/mL (≈ 16.7 to 66.9 µM)	–	< 8 µg/mL	> 64 µg/mL	< 1000 nM	< 1000 nM	–	–	–	–	–	–	–	–
CCCCCCCCCCCCCCCC(=O)N[C@H](CCN)C(=O)N[C@H](C)C(=O)NCC(=O)N(C)[C@@H]1C(=O)N[C@@H](C)C(=O)N[C@H](C(=O)O)Cc2ccc(O)c(c2)-c2cc1ccc2O [Compound 53]	16 to 64 µg/mL (≈ 18.2 to 72.7 µM)	> 64 µg/mL	16 to 64 µg/mL (≈ 18.2 to 72.7 µM)	–	> 64 µg/mL	> 64 µg/mL	< 1000 nM	1000 to 10000 nM	–	–	–	–	–	–	–	–
CCCCCCCCCCCCCCCC(=O)N(C)[C@H](CN)C(=O)N[C@H](C)C(=O)NCC(=O)N(C)[C@@H]1C(=O)N[C@@H](C)C(=O)N[C@H](C(=O)O)Cc2ccc(O)c(c2)-c2cc1ccc2O [Compound 52]	–	–	–	–	–	–	–	–	b (MIC 16-64 μg/ml)	a (MIC >64 μg/ml)	b (MIC 16-64 μg/ml)	b (MIC 16-64 μg/ml)	< 1000 nM	1000 to 10000 nM	a (MIC >64 μg/ml)	–
CCCCc1ccc(-c2ccc(C(=O)N(C)[C@H](CO)C(=O)N[C@H](C)C(=O)N[C@@H](CCCCN)C(=O)N(C)[C@@H]3C(=O)N[C@@H](C)C(=O)N[C@H](C(=O)O)Cc4ccc(O)c(c4)-c4cc3ccc4O)cc2)cc1 [Compound 96]	–	–	–	–	–	–	–	–	a (MIC >64 μg/ml)	a (MIC >64 μg/ml)	a (MIC >64 μg/ml)	b (MIC 16-64 μg/ml)	–	–	b (MIC 16-64 μg/ml)	a (MIC >64 μg/ml)
CCCCCCc1ccc(C(=O)N(C)[C@H](CO)C(=O)N[C@H](C)C(=O)N[C@@H](CCCCN)C(=O)N(C)[C@@H]2C(=O)N[C@@H](C)C(=O)N[C@H](C(=O)O)Cc3ccc(O)c(c3)-c3cc2ccc3O)cc1 [Compound 97]	> 64 µg/mL	> 64 µg/mL	16 to 64 µg/mL (≈ 17.7 to 70.9 µM)	> 64 µg/mL	16 to 64 µg/mL (≈ 17.7 to 70.9 µM)	–	–	–	–	–	–	–	–	–	–	–
CCCCCCCCCCCCCCCC(=O)N(C)[C@H](CO)C(=O)N[C@H](C)C(=O)NCC(=O)N(C)[C@@H]1C(=O)N[C@@H](C)C(=O)N[C@H](C(=O)OCCN)Cc2ccc(O)c(c2)-c2cc1ccc2O [Compound 55]	< 8 µg/mL	> 64 µg/mL	< 8 µg/mL	–	16 to 64 µg/mL (≈ 17.3 to 69.3 µM)	> 64 µg/mL	1000 to 10000 nM	1000 to 10000 nM	–	–	–	–	–	–	–	–
CCCCCCCCCCCCCCCC(=O)N(C)[C@H](CO)C(=O)N[C@H](C)C(=O)NCC(=O)N(C)[C@@H]1C(=O)N[C@@H](C)C(=O)N[C@H](C(=O)OC[C@H](C)N)Cc2ccc(O)c(c2)-c2cc1ccc2O [Compound 57]	16 to 64 µg/mL (≈ 17.1 to 68.2 µM)	> 64 µg/mL	< 8 µg/mL	–	16 to 64 µg/mL (≈ 17.1 to 68.2 µM)	> 64 µg/mL	1000 to 10000 nM	1000 to 10000 nM	–	–	–	–	–	–	–	–
